Measured values: ChEMBL document CHEMBL3885861, “Open TG-GATES”

Species on record: Rattus norvegicus
Assay: Open TG-GATES - Regimen: Single
Type: toxicity, organism-based, Sprague-Dawley
Parameters: regimen Single, gender Male, age 6 weeks
Conditions: in vivo, po, 0 mg/kg, route gavage, dose level Control; for APTT / Bas / Eos / Fbg / Hb / Ht / Lym / MCH / MCHC / MCV / Mono / Neu / PT / Plat / RBC / Ret / WBC: tissue Blood; for KIDNEY_L / KIDNEY_R / KIDNEY_TOTAL: tissue Kidney; for LIVER: tissue Liver; for A/G / ALP / ALT / AST / BUN / CRE / Ca / Cl / DBIL / GLC / IP / K / LDH / Na / PL / RALB / TBIL / TC / TG / TP / gamma-GTP: tissue Plasma

Structure (SMILES): CNC(=C[N+](=O)[O-])NCCSCc1ccc(CN(C)C)o1 [RANITIDINE]
- TERMINAL_BW (3 h): 216.9 g
- APTT (3 h): 20.3 s
- Bas (3 h): 0%
- Eos (3 h): 0.4%
- Fbg (3 h): 215 mg/dL
- Hb (3 h): 13.7 g/dL
- Ht (3 h): 39.6%
- Lym (3 h): 83.4%
- MCH (3 h): 21.8 pg
- MCHC (3 h): 34.7%
- MCV (3 h): 62.8 fL
- Mono (3 h): 2.6%
- Neu (3 h): 10.2%
- PT (3 h): 12.4 s
- Plat (3 h): 114.3 x10_4/uL
- RBC (3 h): 632.2 x10_4/ul
- Ret (3 h): 6.8%
- WBC (3 h): 87.5 x10_2/uL
- KIDNEY_L (3 h): 1 g
- KIDNEY_R (3 h): 1 g
- KIDNEY_TOTAL (3 h): 1.9 g
- LIVER (3 h): 9.7 g
- A/G (3 h): 1.6
- ALP (3 h): 1059 IU/L
- ALT (3 h): 36.4 IU/L
- AST (3 h): 70.2 IU/L
- BUN (3 h): 10.8 mg/dL
- CRE (3 h): 0.4 mg/dL
- Ca (3 h): 10.8 mg/dL
- Cl (3 h): 103 meq/L
- DBIL (3 h): 0.068 mg/dL
- GLC (3 h): 188.2 mg/dL
- IP (3 h): 8.4 mg/dL
- K (3 h): 3.8 meq/L
- LDH (3 h): 130.4 IU/L
- Na (3 h): 140.8 meq/L
- PL (3 h): 136.8 mg/dL
- RALB (3 h): 3.3 g/dL
- TBIL (3 h): 0.1 mg/dL
- TC (3 h): 75.2 mg/dL
- TG (3 h): 50.8 mg/dL
- TP (3 h): 5.3 g/dL
- gamma-GTP (3 h): 1 IU/L
- TERMINAL_BW (6 h): 213.6 g
- APTT (6 h): 19.4 s
- Bas (6 h): 0%
- Eos (6 h): 1%
- Fbg (6 h): 238.2 mg/dL
- Hb (6 h): 13.6 g/dL
- Ht (6 h): 38.7%
- Lym (6 h): 79%
- MCH (6 h): 22.3 pg
- MCHC (6 h): 35%
- MCV (6 h): 63.7 fL
- Mono (6 h): 2.6%
- Neu (6 h): 15.8%
- PT (6 h): 12.2 s
- Plat (6 h): 123.3 x10_4/uL
- RBC (6 h): 608.8 x10_4/ul
- Ret (6 h): 7.6%
- WBC (6 h): 97.4 x10_2/uL
- KIDNEY_L (6 h): 0.9 g
- KIDNEY_R (6 h): 0.9 g
- KIDNEY_TOTAL (6 h): 1.9 g
- LIVER (6 h): 9.5 g
- A/G (6 h): 1.7
- ALP (6 h): 839.8 IU/L
- ALT (6 h): 35.2 IU/L
- AST (6 h): 64.6 IU/L
- BUN (6 h): 10.2 mg/dL
- CRE (6 h): 0.4 mg/dL
- Ca (6 h): 10.7 mg/dL
- Cl (6 h): 102.8 meq/L
- DBIL (6 h): 0.066 mg/dL
- GLC (6 h): 195.2 mg/dL
- IP (6 h): 8.6 mg/dL
- K (6 h): 3.9 meq/L
- LDH (6 h): 111 IU/L
- Na (6 h): 140.2 meq/L
- PL (6 h): 146 mg/dL
- RALB (6 h): 3.4 g/dL
- TBIL (6 h): 0.1 mg/dL
- TC (6 h): 84.2 mg/dL
- TG (6 h): 55.4 mg/dL
- TP (6 h): 5.4 g/dL
- gamma-GTP (6 h): 1 IU/L
- TERMINAL_BW (9 h): 211.2 g
- APTT (9 h): 20.2 s
- Bas (9 h): 0%
- Eos (9 h): 1%
- Fbg (9 h): 230 mg/dL
- Hb (9 h): 13.6 g/dL
- Ht (9 h): 39.1%
- Lym (9 h): 81%
- MCH (9 h): 21.7 pg
- MCHC (9 h): 34.8%
- MCV (9 h): 62.4 fL
- Mono (9 h): 2%
- Neu (9 h): 14.2%
- PT (9 h): 12.3 s
- Plat (9 h): 120.9 x10_4/uL
- RBC (9 h): 627.6 x10_4/ul
- Ret (9 h): 7%
- WBC (9 h): 71.4 x10_2/uL
- KIDNEY_L (9 h): 1 g
- KIDNEY_R (9 h): 1 g
- KIDNEY_TOTAL (9 h): 1.9 g
- LIVER (9 h): 8.8 g
- A/G (9 h): 1.6
- ALP (9 h): 783.8 IU/L
- ALT (9 h): 29.8 IU/L
- AST (9 h): 62.8 IU/L
- BUN (9 h): 10 mg/dL
- CRE (9 h): 0.4 mg/dL
- Ca (9 h): 10.5 mg/dL
- Cl (9 h): 103.2 meq/L
- DBIL (9 h): 0.066 mg/dL
- GLC (9 h): 210.8 mg/dL
- IP (9 h): 8.5 mg/dL
- K (9 h): 3.9 meq/L
- LDH (9 h): 122.8 IU/L
- Na (9 h): 141.2 meq/L
- PL (9 h): 134 mg/dL
- RALB (9 h): 3.4 g/dL
- TBIL (9 h): 0.1 mg/dL
- TC (9 h): 76.8 mg/dL
- TG (9 h): 28.8 mg/dL
- TP (9 h): 5.5 g/dL
- gamma-GTP (9 h): 1.2 IU/L
- TERMINAL_BW (24 h): 228.8 g
- APTT (24 h): 21.3 s
- Bas (24 h): 0.2%
- Eos (24 h): 1%
- Fbg (24 h): 227.4 mg/dL
- Hb (24 h): 13.7 g/dL
- Ht (24 h): 39.1%
- Lym (24 h): 83.6%
- MCH (24 h): 22.5 pg
- MCHC (24 h): 35.2%
- MCV (24 h): 63.9 fL
- Mono (24 h): 2.2%
- Neu (24 h): 11.8%
- PT (24 h): 11.9 s
- Plat (24 h): 130.4 x10_4/uL
- RBC (24 h): 611.2 x10_4/ul
- Ret (24 h): 6.6%
- WBC (24 h): 112 x10_2/uL
- KIDNEY_L (24 h): 1 g
- KIDNEY_R (24 h): 1 g
- KIDNEY_TOTAL (24 h): 2.1 g
- LIVER (24 h): 10.9 g
- A/G (24 h): 1.6
- ALP (24 h): 872.4 IU/L
- ALT (24 h): 38.8 IU/L
- AST (24 h): 62.6 IU/L
- BUN (24 h): 16 mg/dL
- CRE (24 h): 0.4 mg/dL
- Ca (24 h): 10.8 mg/dL
- Cl (24 h): 102.4 meq/L
- DBIL (24 h): 0.094 mg/dL
- GLC (24 h): 190.2 mg/dL
- IP (24 h): 7.7 mg/dL
- K (24 h): 4.1 meq/L
- LDH (24 h): 121 IU/L
- Na (24 h): 140.6 meq/L
- PL (24 h): 148.8 mg/dL
- RALB (24 h): 3.5 g/dL
- TBIL (24 h): 0.1 mg/dL
- TC (24 h): 77.2 mg/dL
- TG (24 h): 78.6 mg/dL
- TP (24 h): 5.7 g/dL
- gamma-GTP (24 h): 1 IU/L
